Data as given in US20130096170A1 (priority 2011, published 2013).

Assay: clinical
Conditions: human

Cc1cccc([C@H](C)c2cnc[nH]2)c1C [dexmedetomidine]
Vd (in vivo): 43 L | AUC(0-t) (in vivo, AUC0-t): 117 ng·h/mL | AUC(0-inf) (in vivo, AUC0-∞): 117 ng·h/mL | Cmax (in vivo, Cmax): 28.8 ng/mL | clearance (in vivo, weight-adjusted clearance): ~16.7 mL/min/kg | clearance (plasma, intravenous, 0.2 ug/kg, CL, Group I (≥2 to <6 y), Dose Level 1 (LD 0.25/CD 0.2 μg/kg/hr), geometric mean, full evaluable population): 271 mL/min | clearance (plasma, intravenous, 0.2 ug/kg, CL, Group II (≥6 to <17 y), Dose Level 1 (LD 0.25/CD 0.2 μg/kg/hr), geometric mean, full evaluable population): 412 mL/min | Vd (plasma, intravenous, 0.2 ug/kg, Vd, Group I (≥2 to <6 y), Dose Level 1 (LD 0.25/CD 0.2 μg/kg/hr), geometric mean, full evaluable population): 36.9 L | Vd (plasma, intravenous, 0.2 ug/kg, Vd, Group II (≥6 to <17 y), Dose Level 1 (LD 0.25/CD 0.2 μg/kg/hr), geometric mean, full evaluable population): 51.7 L | clearance (plasma, intravenous, 0.4 ug/kg, CL, Group I (≥2 to <6 y), Dose Level 2 (LD 0.50/CD 0.4 μg/kg/hr), geometric mean, full evaluable population): 212 mL/min | clearance (plasma, intravenous, 0.4 ug/kg, CL, Group II (≥6 to <17 y), Dose Level 2 (LD 0.50/CD 0.4 μg/kg/hr), geometric mean, full evaluable population): 413 mL/min | Vd (plasma, intravenous, 0.4 ug/kg, Vd, Group I (≥2 to <6 y), Dose Level 2 (LD 0.50/CD 0.4 μg/kg/hr), geometric mean, full evaluable population): 31.8 L | Vd (plasma, intravenous, 0.4 ug/kg, Vd, Group II (≥6 to <17 y), Dose Level 2 (LD 0.50/CD 0.4 μg/kg/hr), geometric mean, full evaluable population): 61.2 L | clearance (plasma, intravenous, 0.7 ug/kg, CL, Group I (≥2 to <6 y), Dose Level 3 (LD 1.00/CD 0.7 μg/kg/hr), geometric mean, full evaluable population): 276 mL/min | clearance (plasma, intravenous, 0.7 ug/kg, CL, Group II (≥6 to <17 y), Dose Level 3 (LD 1.00/CD 0.7 μg/kg/hr), geometric mean, full evaluable population): 274 mL/min | Vd (plasma, intravenous, 0.7 ug/kg, Vd, Group I (≥2 to <6 y), Dose Level 3 (LD 1.00/CD 0.7 μg/kg/hr), geometric mean, full evaluable population): 46.6 L | Vd (plasma, intravenous, 0.7 ug/kg, Vd, Group II (≥6 to <17 y), Dose Level 3 (LD 1.00/CD 0.7 μg/kg/hr), geometric mean, full evaluable population): 46.6 L | clearance (plasma, intravenous, 2 ug/kg, CL, Group I (≥2 to <6 y), Dose Level 4 (LD 1.00/CD 2.00 μg/kg/hr), geometric mean, full evaluable population): 199 mL/min | clearance (plasma, intravenous, 2 ug/kg, CL, Group II (≥6 to <17 y), Dose Level 4 (LD 1.00/CD 2.00 μg/kg/hr), geometric mean, full evaluable population): 423 mL/min | Vd (plasma, intravenous, 2 ug/kg, Vd, Group I (≥2 to <6 y), Dose Level 4 (LD 1.00/CD 2.00 μg/kg/hr), geometric mean, full evaluable population): 36.3 L | Vd (plasma, intravenous, 2 ug/kg, Vd, Group II (≥6 to <17 y), Dose Level 4 (LD 1.00/CD 2.00 μg/kg/hr), geometric mean, full evaluable population): 72.8 L | AUC(0-t) (plasma, intravenous, AUC0-t Mean, Dose Level 1, LD 0.25/CD 0.2 μg/kg/hr, full evaluable population): 2.68 ng·h/mL | AUC(0-t) (plasma, intravenous, AUC0-t Mean, Dose Level 2, LD 0.50/CD 0.4 μg/kg/hr, full evaluable population): 6.46 ng·h/mL | AUC(0-t) (plasma, intravenous, AUC0-t Mean, Dose Level 3, LD 1.00/CD 0.7 μg/kg/hr, full evaluable population): 17 ng·h/mL | AUC(0-t) (plasma, intravenous, AUC0-t Mean, Dose Level 4, LD 1.00/CD 2.00 μg/kg/hr, full evaluable population): 28.5 ng·h/mL | AUC(0-t) (plasma, intravenous, AUC0-t Median, Dose Level 1, LD 0.25/CD 0.2 μg/kg/hr, full evaluable population): 1.54 ng·h/mL | AUC(0-t) (plasma, intravenous, AUC0-t Median, Dose Level 2, LD 0.50/CD 0.4 μg/kg/hr, full evaluable population): 5.25 ng·h/mL | AUC(0-t) (plasma, intravenous, AUC0-t Median, Dose Level 3, LD 1.00/CD 0.7 μg/kg/hr, full evaluable population): 5.61 ng·h/mL | AUC(0-t) (plasma, intravenous, AUC0-t Median, Dose Level 4, LD 1.00/CD 2.00 μg/kg/hr, full evaluable population): 25.4 ng·h/mL | AUC(0-t) (plasma, intravenous, AUC0-t, Table 30 key summary (mean), Dose Level 1, LD 0.25/CD 0.2 μg/kg/hr, full evaluable population): 2.68 ng·h/mL | AUC(0-t) (plasma, intravenous, AUC0-t, Table 30 key summary (mean), Dose Level 2, LD 0.50/CD 0.4 μg/kg/hr, full evaluable population): 6.46 ng·h/mL | AUC(0-t) (plasma, intravenous, AUC0-t, Table 30 key summary (mean), Dose Level 3, LD 1.00/CD 0.7 μg/kg/hr, full evaluable population): 17 ng·h/mL | AUC(0-t) (plasma, intravenous, AUC0-t, Table 30 key summary (mean), Dose Level 4, LD 1.00/CD 2.00 μg/kg/hr, full evaluable population): 28.5 ng·h/mL | AUC(0-inf) (plasma, intravenous, AUC0-∞ Mean, Dose Level 1, LD 0.25/CD 0.2 μg/kg/hr, full evaluable population): 3.15 ng·h/mL | AUC(0-inf) (plasma, intravenous, AUC0-∞ Mean, Dose Level 2, LD 0.50/CD 0.4 μg/kg/hr, full evaluable population): 6.67 ng·h/mL | AUC(0-inf) (plasma, intravenous, AUC0-∞ Mean, Dose Level 3, LD 1.00/CD 0.7 μg/kg/hr, full evaluable population): 17.3 ng·h/mL | AUC(0-inf) (plasma, intravenous, AUC0-∞ Mean, Dose Level 4, LD 1.00/CD 2.00 μg/kg/hr, full evaluable population): 29 ng·h/mL | AUC(0-inf) (plasma, intravenous, AUC0-∞ Median, Dose Level 1, LD 0.25/CD 0.2 μg/kg/hr, full evaluable population): 1.58 ng·h/mL | AUC(0-inf) (plasma, intravenous, AUC0-∞ Median, Dose Level 2, LD 0.50/CD 0.4 μg/kg/hr, full evaluable population): 5.52 ng·h/mL | AUC(0-inf) (plasma, intravenous, AUC0-∞ Median, Dose Level 3, LD 1.00/CD 0.7 μg/kg/hr, full evaluable population): 6.08 ng·h/mL | AUC(0-inf) (plasma, intravenous, AUC0-∞ Median, Dose Level 4, LD 1.00/CD 2.00 μg/kg/hr, full evaluable population): 25.7 ng·h/mL | AUC(0-inf) (plasma, intravenous, AUC0-∞, Table 30 key summary (mean), Dose Level 1, LD 0.25/CD 0.2 μg/kg/hr, full evaluable population): 3.15 ng·h/mL | AUC(0-inf) (plasma, intravenous, AUC0-∞, Table 30 key summary (mean), Dose Level 2, LD 0.50/CD 0.4 μg/kg/hr, full evaluable population): 6.67 ng·h/mL | AUC(0-inf) (plasma, intravenous, AUC0-∞, Table 30 key summary (mean), Dose Level 3, LD 1.00/CD 0.7 μg/kg/hr, full evaluable population): 17.3 ng·h/mL | AUC(0-inf) (plasma, intravenous, AUC0-∞, Table 30 key summary (mean), Dose Level 4, LD 1.00/CD 2.00 μg/kg/hr, full evaluable population): 29 ng·h/mL | clearance (plasma, intravenous, CL Mean, Dose Level 1, LD 0.25/CD 0.2 μg/kg/hr, full evaluable population): 537 mL/min | clearance (plasma, intravenous, CL Mean, Dose Level 2, LD 0.50/CD 0.4 μg/kg/hr, full evaluable population): 338 mL/min | clearance (plasma, intravenous, CL Mean, Dose Level 3, LD 1.00/CD 0.7 μg/kg/hr, full evaluable population): 309 mL/min | clearance (plasma, intravenous, CL Mean, Dose Level 4, LD 1.00/CD 2.00 μg/kg/hr, full evaluable population): 370 mL/min | clearance (plasma, intravenous, CL Median, Dose Level 1, LD 0.25/CD 0.2 μg/kg/hr, full evaluable population): 326 mL/min | clearance (plasma, intravenous, CL Median, Dose Level 2, LD 0.50/CD 0.4 μg/kg/hr, full evaluable population): 267 mL/min | clearance (plasma, intravenous, CL Median, Dose Level 3, LD 1.00/CD 0.7 μg/kg/hr, full evaluable population): 270 mL/min | clearance (plasma, intravenous, CL Median, Dose Level 4, LD 1.00/CD 2.00 μg/kg/hr, full evaluable population): 282 mL/min | clearance (plasma, intravenous, CL, Table 30 key summary (mean), Dose Level 1, LD 0.25/CD 0.2 μg/kg/hr, full evaluable population): 537 mL/min | clearance (plasma, intravenous, CL, Table 30 key summary (mean), Dose Level 2, LD 0.50/CD 0.4 μg/kg/hr, full evaluable population): 338 mL/min | clearance (plasma, intravenous, CL, Table 30 key summary (mean), Dose Level 3, LD 1.00/CD 0.7 μg/kg/hr, full evaluable population): 310 mL/min | clearance (plasma, intravenous, CL, Table 30 key summary (mean), Dose Level 4, LD 1.00/CD 2.00 μg/kg/hr, full evaluable population): 370 mL/min | Cmax (plasma, intravenous, Cmax Mean, Dose Level 1, LD 0.25/CD 0.2 μg/kg/hr, full evaluable population): 0.48 ng/mL | Cmax (plasma, intravenous, Cmax Mean, Dose Level 2, LD 0.50/CD 0.4 μg/kg/hr, full evaluable population): 0.848 ng/mL | Cmax (plasma, intravenous, Cmax Mean, Dose Level 3, LD 1.00/CD 0.7 μg/kg/hr, full evaluable population): 3.39 ng/mL | Cmax (plasma, intravenous, Cmax Mean, Dose Level 4, LD 1.00/CD 2.00 μg/kg/hr, full evaluable population): 3.09 ng/mL | Cmax (plasma, intravenous, Cmax Median, Dose Level 1, LD 0.25/CD 0.2 μg/kg/hr, full evaluable population): 0.266 ng/mL | Cmax (plasma, intravenous, Cmax Median, Dose Level 2, LD 0.50/CD 0.4 μg/kg/hr, full evaluable population): 0.581 ng/mL | Cmax (plasma, intravenous, Cmax Median, Dose Level 3, LD 1.00/CD 0.7 μg/kg/hr, full evaluable population): 0.966 ng/mL | Cmax (plasma, intravenous, Cmax Median, Dose Level 4, LD 1.00/CD 2.00 μg/kg/hr, full evaluable population): 2.69 ng/mL
